Data as given in patent US20250122171A1, “Substituted Amine Compounds, Compositions and Methods of Use” (Deep Apple Therapeutics, Inc., priority 2023, published 2025).

Columns and labels:
Type in all cases: cell-based
human MRGPRX2 = target: T1, human MRGPRX2 (Homo sapiens, UniProt Q96LB1); assay: MRGPRX2 Activity Assay (IP-1 HTRF, antagonist mode); settings: FlpIn TRex-MRGPRX2-HEK293 cells; versus 1 μM Cortistatin-14 agonist; 30 minutes preincubation
T1 construct: expressed in transfected cells; host or cells: FlpIn TRex HEK293 (TRex-MRGPRX2-HEK), doxycycline-induced
T1 sequence (Q96LB1 1-330): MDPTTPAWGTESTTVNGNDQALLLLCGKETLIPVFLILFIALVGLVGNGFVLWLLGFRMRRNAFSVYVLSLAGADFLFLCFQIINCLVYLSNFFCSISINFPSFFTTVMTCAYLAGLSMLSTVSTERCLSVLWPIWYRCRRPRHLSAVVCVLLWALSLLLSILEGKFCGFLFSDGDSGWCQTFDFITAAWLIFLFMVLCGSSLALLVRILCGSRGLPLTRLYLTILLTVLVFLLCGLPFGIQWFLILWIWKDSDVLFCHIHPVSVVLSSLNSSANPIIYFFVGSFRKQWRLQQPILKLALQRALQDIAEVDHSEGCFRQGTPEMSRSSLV
How it was run: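 Doxycycline-induced (100 ng/mL, 18-24 h) TRex HEK293 cells stably expressing human MRGPRX2, in HBSS/20 mM HEPES/0.1% BSA/10 mM LiCl. Compounds (top final 30 uM, 1% DMSO) preincubated 30 min, then agonist stimulation 1 h at 37° C without wash. IP-1 accumulation read by HTRF; IC50 from 4-parameter fit.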

LAD-2 cells [1] = assay: LAD2 Degranulation Assay (Protocol 1), β-hexosaminidase release; settings: Homo sapiens, 1 μM Cortistatin-14, 30 minute preincubation, top concentration 3 μM
Method: (§1) LAD-2 cells were maintained at 37° C. with 5% CO2 and grown in complete StemPro-34 media supplemented with 1% L-Glutamate, 1% penicillin/streptomycin, and 250 ng/mL human SCF.
On the day of experiment, cells were collected by centrifugation and seeded in 384-well assay plates, at 4,000 cells per well in 10 μl freshly made assay buffer (10 mM HEPES, 130 mM NaCl, 5 mM KCl, 1.8 mM CaCl2), 1.0 mM MgCl2, 5.6 mM glucose, 0.1% BSA, pH=7.40). For dose-response assays, compounds solubilized in 100% DMSO at 30 mM were serially diluted (1:3) first in 100% DMSO, and 2 intermediate dilutions with assay buffer were used to establish a final top concentration of 3 μM (in assay plate). Final DMSO concentration was kept constant at 0.1% across plates for all assays. Cortistatin-14 at 30 mM stock concentration was solubilized in HBSS+0.1% BSA, stored at −20° C. in 5 μl aliquots and discarded after one freeze-thaw cycle. Final concentration of agonist used in both dose-response and single point assays was 1 μM, prepared in assay buffer.
(§2) Antagonist equilibrium was established with 30 minute preincubation, followed by no wash, direct addition, and stimulation of agonist for 30 minutes at 37° C. For detection of β-hexosaminidase activity, assay plates were centrifuged and 5 μl of cell-free supernatant from each assay well was transferred to a black-walled black-bottomed 384-well plate. Substrate solution (1 mM 4-Methylumbelliferyl N-acetyl-β-D-glucosaminide in citrate buffer, pH=4.5, 15 μl) was added to each well and plates were incubated for 1 hour at 37° C. The plate was read on an EnVision XCite plate reader for umbelliferone fluorescence intensity (λex=355 nm, λem=460 nm). Background-subtracted data was analyzed using either GraphPad Prism or a custom Python script to calculate IC50 using either Log[Antagonist] vs. response (4 parameter) nonlinear regression (dose-response assays).

hERG channel = target: T2, hERG channel (Homo sapiens, UniProt Q12809); assay: hERG Safety Evaluation by Manual Patch-Clamp System; settings: hERG-T-Rex 293 cells, whole cell patch-clamp at 35° C.
T2 construct: host or cells: hERG-T-Rex 293 (HEK 293), doxycycline-induced
Method: A stable BIEK 293 cell line with inducible hERG channel expression (hERG-T-Rex 293, Invitrogen cat #K1236) was cultured in medium containing 85% DMVEM, 10% dialyzed FBS, 0.1 mM NEAA, 25 mM HEPES, 100 U/mL Penicillin-Streptomycin, 5 μg/mL Blasticidin and 400 μg/mL Geneticin. Before the assay, cells were induced with doxycycline at 1 μg/mL for 48 hours. On the experiment day, the induced cells were resuspended and plated onto coverslips at 5×10^5 cells/per 3.5 cm cell culture dish prior to use and cultured in medium without Blasticidin and Geneticin.
Electrophysiology recordings were performed in extracellular solution (ECS) containing (in mM): 132 NaCl, 4 KCl, 3 CaCl2), 0.5 MgCl2, 11.1 D-(+) glucose, and 10 HEPES (pH adjusted to 7.35 with NaOH, osmolarity 285-295 mOsm). Recording pipets contained (in mM) 10 NaCl, 10 KCl, 110 KF, 10 EGTA, and 10 HEPES (pH adjusted to 7.2 with KOH, osmolarity 285-295 mOsm).
Test and positive control (dofetilide) compounds were solubilized in 100% DMSO at 10 mM or 75 mM, respectively. Intermediate dilutions of compounds were prepared by serial dilution in 100% DMSO, after which working solutions were prepared in ECS (final DMSO concentration=0.1-1% v/v for test compounds, and 0.1% for dofetilide). […]
Whole cell recordings of voltage-clamped cells were performed at 35° C., with all working solutions heated to 34° C. in a water bath before administration. Current recordings were collected at 20 kHz with a 10 kHz filter and were compensated for capacitance. Cells were clamped at −60 mV, and leak current was tested at −80 mV for 500 ms. The hERG current was elicited by depolarizing at +30 mV for 4.8 seconds and then the voltage was taken back to −50 mV for 5.2 seconds to remove the inactivation and observe the deactivating tail current. Recordings were continued for 120 seconds to assess current stability. Only stable cells with recording parameters above threshold were used in compound administration experiments. Vehicle control was applied to cells to establish baseline. […] For dose response testing, test compound was applied to the cells cumulatively from low to high concentrations. Dofetilide at concentration of 450 nM was also applied to each cell post-hERG current measurement at the highest concentration of test compound as the internal low control for normalization of percentage inhibition. Dofetilide (5 doses) response was performed as positive hERG inhibition control for each batch of cells.
The following criteria were used to determine data acceptability: 1) Initial seal resistance>1 GΩ; 2) Leak currents<50% of the control peak tail currents at any time; 3) Normal test pulse current waveform (e.g., hERG peak tail) current amplitude greater than prepulse current amplitude and the peak tail amplitude>250 pA; 4) Membrane resistance Rm>500 MΩ; 5) Access resistance (Ra)<15 MΩ; 6) Apparent run-down of peak current<2.5% per min. Percent current inhibition was calculated as (1−(Peak tail currentcompound−Peak tail currentpositive control)/(Peak tail currentBlank vehicle−Peak tail currentpositive control))×100. PatchMaster software was used to extract the peak current from the original data. The dose response curve of test compounds was plotted with % inhibition against the concentration of test compounds using Graphpad Prism 8.0, and the data fit to a sigmoid dose-response curve with a variable slope.

LAD-2 cells [2] = assay: LAD2 Degranulation Assay (Protocol 2), β-hexosaminidase release; settings: Homo sapiens; for IC50: 0.5 μM Cortistatin-14, 2 h preincubation, cells without SCF 18-24 hours, top concentration 3 μM; for activity at 0.25 µM: single point 250 nM, 0.5 μM Cortistatin-14, % control β-hexosaminidase activity
Method: as §1
18-24 hours prior to experiment, LAD-2 cells were collected and transferred to growth media without SCF. On the day of experiment, cells were collected by centrifugation and seeded in 384-well assay plates, at 4,000 cells per well in 17 μl freshly made assay buffer (10 mM HEPES, 137 mM NaCl, 2.7 mM KCl, 1.8 mM CaCl2), 1.0 mM MgCl2, 5.6 mM glucose, 0.4 mM NaH2PO4, 0.04% BSA, pH=7.40). For dose-response assays, compounds solubilized in 100% DMSO at 30 mM were serially diluted (1:3) first in 100% DMSO, and 2 intermediate dilutions with assay buffer were used to establish a final top concentration of 3 μM (in assay plate). For single point assays, dilution of DMSO stocks to 250 nM (in assay plate) was performed in the same manner as described for dose-response assays. Final DMSO concentration was kept constant at 0.1% across plates for all assays. Cortistatin-14 at 30 mM stock concentration was solubilized in HBSS+0.1% BSA, stored at −20° C. in 5 μl aliquots and discarded after one freeze-thaw cycle. Final concentration of agonist used in both dose-response and single point assays was 0.5 μM, prepared in assay buffer.
as §2, with “with 2 h” for “with 30 minute”, “[…])” for “15 μl)”, “(dose-response assays) or % control β-hexosaminidase activity (single point” for “(dose-response”

T2 sequence (Q12809 whole entry): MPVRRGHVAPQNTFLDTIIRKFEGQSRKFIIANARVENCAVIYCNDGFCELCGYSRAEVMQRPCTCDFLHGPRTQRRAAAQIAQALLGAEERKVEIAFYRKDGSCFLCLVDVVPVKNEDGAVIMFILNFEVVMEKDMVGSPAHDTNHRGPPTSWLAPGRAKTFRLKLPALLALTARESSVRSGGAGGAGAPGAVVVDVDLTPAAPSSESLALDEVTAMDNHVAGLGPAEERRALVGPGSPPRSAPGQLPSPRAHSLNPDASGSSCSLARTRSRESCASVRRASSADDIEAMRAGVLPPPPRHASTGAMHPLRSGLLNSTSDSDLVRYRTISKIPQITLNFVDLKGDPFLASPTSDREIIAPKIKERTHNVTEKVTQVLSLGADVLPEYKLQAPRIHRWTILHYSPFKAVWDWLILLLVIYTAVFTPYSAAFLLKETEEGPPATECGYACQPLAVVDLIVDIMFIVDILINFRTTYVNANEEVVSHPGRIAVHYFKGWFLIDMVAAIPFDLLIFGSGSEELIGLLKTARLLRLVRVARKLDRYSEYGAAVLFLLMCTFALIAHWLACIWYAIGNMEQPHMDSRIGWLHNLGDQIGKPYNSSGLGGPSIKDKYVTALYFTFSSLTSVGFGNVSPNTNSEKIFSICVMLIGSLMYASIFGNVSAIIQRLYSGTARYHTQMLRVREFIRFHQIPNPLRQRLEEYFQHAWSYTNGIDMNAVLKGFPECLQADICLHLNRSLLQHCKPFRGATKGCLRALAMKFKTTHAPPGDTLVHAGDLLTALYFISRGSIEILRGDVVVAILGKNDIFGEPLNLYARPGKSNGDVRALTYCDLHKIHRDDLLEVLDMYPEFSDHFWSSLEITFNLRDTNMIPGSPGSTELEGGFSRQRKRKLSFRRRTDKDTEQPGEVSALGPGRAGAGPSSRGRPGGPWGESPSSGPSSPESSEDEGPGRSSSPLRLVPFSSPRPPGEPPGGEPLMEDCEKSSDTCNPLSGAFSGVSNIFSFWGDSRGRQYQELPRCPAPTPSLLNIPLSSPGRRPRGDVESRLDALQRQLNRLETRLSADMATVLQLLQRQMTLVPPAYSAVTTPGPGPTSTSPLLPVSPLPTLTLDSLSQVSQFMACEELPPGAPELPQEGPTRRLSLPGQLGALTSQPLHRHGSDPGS

IC50 (human MRGPRX2) [nM] | IC50 (LAD-2 cells [1]) [nM] | IC50 (LAD-2 cells [2]) [nM] | SMILES | hERG Inhibition (%) @ 1 μM (hERG channel) [%] | hERG Inhibition (%) @ 20 μM (hERG channel) [%] | activity at 0.25 µM (LAD-2 cells [2]) [%]
58 | 1940 |  | C[C@@H](C(=O)Nc1cn(Cc2ccc(F)cc2F)cn1)N1CCC(F)(F)[C@@H](c2cc[n+]([O-])cc2)C1 (single isomer, unassigned) [Compound 1] | 10 | 35 | 
9 | 14 |  | C[C@H](C(=O)Nc1cn(Cc2cc(F)cc(F)c2)cn1)N1CCC(F)(F)[C@@H](c2cc[n+]([O-])cc2)C1 (single isomer, unassigned) [Compound 5] | 3 | 35 | 
3.7 | 12 |  | C[C@@H](C(=O)Nc1nc2cc3c(cc2s1)OCO3)N1CCC(F)(F)[C@@H](c2cc[n+]([O-])cc2)C1 (single isomer, unassigned) [Compound 11] | 11 | 62 | 
8 | 13 | 12 | C[C@H](C(=O)Nc1cn(Cc2cc(F)cc(F)c2)c(C(F)F)n1)N1CCC(F)(F)[C@@H](c2cc[n+]([O-])cc2)C1 (single isomer, unassigned) [Compound 83] |  |  | 
13 |  | 9.5 | C[C@@H](C(=O)Nc1cn2c(n1)CC[C@@H]2c1cc(F)cc(F)c1)N1CCC(F)(F)[C@@H](c2cc[n+]([O-])cc2)C1 (single isomer, unassigned) [Compound 489] | 12 | 47 | 14
20 |  | 6.9 | C[C@@H](C(=O)Nc1cn2c(n1)CC[C@H]2c1cc(F)cc(F)c1)N1CCC(F)(F)[C@@H](c2ccc(=O)[nH]c2)C1 (single isomer, unassigned) [Compound 494] | 9 | 54 | 13
11 | 25 |  | C[C@@H](C(=O)Nc1cn(Cc2cc(F)c(F)c(F)c2)cn1)N1CCC(F)(F)[C@@H](c2cc[n+]([O-])cc2)C1 [Compound 34, 4-((S)-4,4-difluoro-1-((S)-1-oxo-1-((1-(3,4,5-trifluorobenzyl)-1H-imidazol-4-yl)amino)propan-2-yl)piperidin-3-yl)pyridine 1-oxide] |  |  | 
7.9 | 57 |  | C[C@@H](C(=O)Nc1cn(Cc2cc(F)ccc2Cl)cn1)N1CCC(F)(F)[C@@H](c2cc[n+]([O-])cc2)C1 [Compound 35, 4-((S)-1-((S)-1-((1-(2-chloro-5-fluorobenzyl)-1H-imidazol-4-yl)amino)-1-oxopropan-2-yl)-4,4-difluoropiperidin-3-yl)pyridine 1-oxide] |  |  | 
4.1 | 3.3 |  | C[C@@H](C(=O)Nc1cn(Cc2cc(F)cc(F)c2F)cn1)N1CCC(F)(F)[C@@H](c2cc[n+]([O-])cc2)C1 [Compound 39, 4-((S)-4,4-difluoro-1-((S)-1-oxo-1-((1-(2,3,5-trifluorobenzyl)-1H-imidazol-4-yl)amino)propan-2-yl)piperidin-3-yl)pyridine 1-oxide] |  |  | 
783 | 1020 |  | C[C@@H](C(=O)Nc1cn(Cc2cc(F)cc(C#N)c2)cn1)N1CCC(F)(F)[C@@H](c2cc[n+]([O-])cc2)C1 [Compound 53, 4-((S)-1-((S)-1-((1-(3-cyano-5-fluorobenzyl)-1H-imidazol-4-yl)amino)-1-oxopropan-2-yl)-4,4-difluoropiperidin-3-yl)pyridine 1-oxide] |  |  | 
